The values that follow come from US5302514A, “Maltooligoside derivative, reagent for determining α-amylase activity containing the same as effective ingredient and a process for determining the α-amylase activity using same” (Kikkoman Corporation, priority 1991, dated 1994).

The subject of test [1] is human α-amylase (P:S=1:1). The experiment in a line: α-Amylase hydrolysis (increase in absorbance at 400 nm with coupled enzymes). In kind it is biochemical. Conditions: for Increase in absorbance for 2 minutes (corrected by the 0 IU/l of α-amylase activity): substrate solution 3.00 mM, 400 nm, 37° C., pH 7.0; for hydrolysis by α-amylase (in words): as understood from Tables 1 and 2. The method, then:
Coupled enzyme solution was prepared by dissolving a commercially available α-glucosidase derived from yeast and a commercially available β-glucosidase derived from almond in a 50 mM phosphate buffer (pH=7.0) containing 40 mM NaCl and 2 mM MgCl2 to a concentration of 117 units/ml and 13 units/ml, respectively. As the commercially available α- and β-glucosidases, those available from Toyobo Co., Ltd. were used.
Standard α-amylase solutions were prepared by dissolving a commercially available human α-amylase (P:S=1:1) in purified water to a concentration of 0, 148, 284, 401 and 525 IU/l, respectively. As the commercially available human α-amylase, Calibzyme.AMY manufactured by International Reagents Corp. was employed. As for the activity of α-amylase, an amount of the enzyme which decomposes 1μ mol of (a commercially available) 2-chloro-4-nitrophenyl β-D-maltopentaoside at 37° C. for one minute was defined as 1 international unit (IU).
The substrate solution (a) was prepared by dissolving 2-chloro-4-nitorphenyl 6^5 -azido-6^5 -deoxy-β-D-maltopentaoside (referred to hereinafter as the substrate of the present invention) obtained in Example 3 in a 50 mM phosphate buffer (pH=7.0) containing 40 mM NaCl and 2 mM MgCl2 to a concentration of 3.00 mM.
The substrate solution (b) was prepared by dissolving 2-chloro-4-nitrophenyl 6^3 -azido-6^3 -deoxy-β-D-maltotrioside (referred to hereinafter as the reference substrate) obtained in the step (1) in a 50 mM phosphate buffer (pH=7.0) containing 40 mM NaCl and 2 mM MgCl2 to a concentration of 3.00 mM.
A coupled enzyme solution was prepared in the same manner as in the step (2) of Example 5.
α-amylase solutions were prepared in the same manner as in the step (3) of Example 5 by dissolving a commercially available human α-amylase (P:S=1:1) in purified water to a concentration of 0, 250 and 500 IU/l, respectively.
The coupled enzyme solution in an amount of 1.0 ml was added with stirring to 250 μl of the α-amylase solution, and the mixture was heated at 37° C. for one minute. Each of the substrate solution in an amount of 2.0 ml was added with stirring to the mixture, and the mixture was heated at 37° C. for 2 minutes before measuring the variation of the absorbance at 400 nm for 2 minutes.
2-chloro-4-nitrophenyl 5^5 -eno-4^5 -O-mesyl-β-D-maltopentaoside (referred to hereinafter as substrate of the present invention) obtained in Example 1 was dissolved in a 50 mM phosphate buffer (pH=7.0) containing 40 mM NaCl and 2 mM MgCl2 to a concentration of 3.00 mM.
2-chloro-4-nitrophenyl 5^3 -eno-4^3 -O-mesyl-β-D-maltotrioside(referred to hereinafter as reference substrate) obtained in the previous step (1) was dissolved in a 50 mM phosphate buffer (pH=7.0) containing 40 mM NaCl an 2 mM MgCl2 to a concentration of 3.00 mM.
α-amylase solutions were prepared in the same manner as in the step (5) of Example 7.
The variations of absorbance were measured in the same manner as in the step (6) of Example 7.

Test [2] addresses T1, amylase derived from human pancreatic juice (human P type α-amylase) (Homo sapiens, UniProt P04746).
T1 sequence (P04746 16-511): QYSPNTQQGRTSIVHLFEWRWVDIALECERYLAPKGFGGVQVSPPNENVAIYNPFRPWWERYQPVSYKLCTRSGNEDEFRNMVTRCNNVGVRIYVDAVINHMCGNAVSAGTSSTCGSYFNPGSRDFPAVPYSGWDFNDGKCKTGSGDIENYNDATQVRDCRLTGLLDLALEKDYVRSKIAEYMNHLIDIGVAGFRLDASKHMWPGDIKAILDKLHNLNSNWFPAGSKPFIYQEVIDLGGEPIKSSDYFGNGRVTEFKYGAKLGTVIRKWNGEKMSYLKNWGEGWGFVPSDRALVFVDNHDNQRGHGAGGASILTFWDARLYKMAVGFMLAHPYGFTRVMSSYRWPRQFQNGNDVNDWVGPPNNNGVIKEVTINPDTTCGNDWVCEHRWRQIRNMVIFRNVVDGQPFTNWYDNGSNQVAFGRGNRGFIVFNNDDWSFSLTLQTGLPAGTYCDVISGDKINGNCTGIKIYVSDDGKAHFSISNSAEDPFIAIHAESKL
The experiment in a line: Km value, P type α-amylase. In kind it is biochemical. The conditions noted are these: pH 7.0, 37° C., Lineweaver-Burk. As for the experimental part: Km values, hydrolysis rate, water solubility and the patterns of action in the hydrolysis of the present substrates 2-chloro-4-nitrophenyl 5^5 -eno-4^5 -O-mesyl-β-D-maltopentaoside (EMG5CNP) and 2-chloro-4-nitrophenyl 6^5 -azido-6^5 -deoxy- β-D-maltopentaoside (ADG5CNP) obtained in Example were examined in accordance with the following methods.
Substrate solutions were prepared by dissolving in a 50 mM phosphate buffer (pH=7.0) containing 40 mM NaCl and 2 mM MgCl2 a substrate to 0.16, 0.32, 0.48, 0.64, 0.80 and 0.96 mM, respectively.
The Km value of each substrate solution was obtained by measuring the hydrolysis rate of the substrate in accordance with the same procedure as in the measurement of hydrolysis rate described below and roughly calculating the Lineweaver-Burk's reciprocal plot (see "Tanpaku-Kohso no Jikken-hou", ed. Takeichi Horio & Jinpei Yamashita, Nanko-do, 1981).
Each substrate was dissolved in a 50 mM phosphate buffer (pH=7.0) containing 40 mM NaCl and 2 mM MgCl2 to make three substrate solutions in a concentration of 0.8-1.6 times and three substrate solutions in a concentration of 1.6-3.2 times per the roughly calculated Km value in the aforementioned paragraph (ii).
The Km value was calculated in accordance with the same procedure as in the aforementioned paragraph (ii).
P: amylase derived from human pancreatic juice, […]

Regarding `[N-]=[N+]=NC[C@H]1O[C@H](O[C@H]2[C@H](O)[C@@H](O)[C@@H](O[C@H]3[C@H](O)[C@@H](O)[C@@H](O[C@H]4[C@H](O)[C@@H](O)[C@@H](O[C@H]5[C@H](O)[C@@H](O)[C@H](Oc6ccc([N+](=O)[O-])cc6Cl)O[C@@H]5CO)O[C@@H]4CO)O[C@@H]3CO)O[C@@H]2CO)[C@H](O)[C@@H](O)[C@@H]1O` [ADG5CNP, 2-chloro-4-nitrophenyl 6^5-azido-6^5-deoxy-β-D-maltopentaoside], the “Increase in absorbance for 2 minutes (corrected by the 0 IU/l of α-amylase activity)” value in test [1] (Table 1, α-amylase activity 250 IU/l) was found to be 0.058; in test [1] (Table 1, α-amylase activity 500 IU/l), 0.118. In test [1], the “hydrolysis by α-amylase (in words)” value is “hydrolyzed satisfactorily”. Moreover, the Km in test [2] turned out to be 170 µM.

As for `C=C1O[C@H](O[C@H]2[C@H](O)[C@@H](O)[C@@H](O[C@H]3[C@H](O)[C@@H](O)[C@@H](O[C@H]4[C@H](O)[C@@H](O)[C@@H](O[C@H]5[C@H](O)[C@@H](O)[C@H](Oc6ccc([N+](=O)[O-])cc6Cl)O[C@@H]5CO)O[C@@H]4CO)O[C@@H]3CO)O[C@@H]2CO)[C@H](O)[C@@H](O)[C@@H]1OS(C)(=O)=O` [EMG5CNP, 2-chloro-4-nitrophenyl 5^5-eno-4^5 -O-mesyl-β-D-maltopentaoside], the “Increase in absorbance for 2 minutes (corrected by the 0 IU/l of α-amylase activity)” value in test [1] (Table 2, α-amylase activity 250 IU/l) is given as 0.057; in test [1] (Table 2, α-amylase activity 500 IU/l) it was 0.116. In test [1], the “hydrolysis by α-amylase (in words)” value was “hydrolyzed extremely smoothly”. In addition, in test [2], the Km amounted to 130 µM.

The term Km denotes the substrate concentration at which the rate is half of its maximum.
